For 3 compounds, AC50 results are on record in PubChem BioAssay AID652062 (Broad Institute, 2013).

Molecules are shown by their SMILES. “And” between values parts separate entries of the source, which are not always exact repeats. Equal entries are not always repeated.

Broadly, the AC50 is the midpoint of the concentration-response curve, whichever way the signal moves.

The assay deals with HeLa-AD8 Env / CEM-CCR5 cell fusion, luciferase. The assay can be described thus: inhibitors of clade B AD8 Env fusion, dose response, cell-based, cherry-pick (AID 652062).
With `COC(=O)C1(C(=O)OC)C[C@H](c2ccc(OC)cc2)N(Cc2ccccc2OC)[C@@H]1c1cccs1`, the AC50 was 2.49 µM and 11.3 µM. The same measure for `O=C(C[C@H]1C[C@H]2c3cc(NC(=O)c4ccc5c(c4)OCO5)ccc3O[C@H]2[C@H](CO)O1)NCc1ccc(Oc2ccccc2)cc1`: 15.1 µM; for `C[C@H](CO)N1C[C@H](C)[C@H](CN(C)S(=O)(=O)c2ccccc2)Oc2ncc(/C=C/c3ccccc3)cc2C1=O`: 23.8 µM and 3.07 µM.
